Assays:
Assay type in all cases: in vivo
[1] = tested on: Field Bindweed; test: Postemergence Herbicidal Activity, Field Bindweed; details: post-emergence; for pest or weed control at 2000 g/ha: 2.0 kg/ha
Summary of the method: (§1)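 Applications are made pre- or postemergence from 50/50 acetone/water solutions of each compound. Effect is recorded as % C at the stated kg/ha rate.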

[2] = tested on: Rice; test: Preemergence Herbicidal Activity, Rice; details: Oryza sativa, pre-emergence; for plant injury at 2000 g/ha: 2.0 kg/ha
Summary of the method: (§2)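 Compounds were applied at rates given in kilograms per hectare, and herbicidal effect was scored as percent control.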

[3] = tested on: Velvetleaf; test: Preemergence Herbicidal Activity, Velvetleaf; details: Abutilon theophrasti, pre-emergence; for pest or weed control at 2000 g/ha: 2.0 kg/ha
Summary of the method: as §1

[4] = tested on: Rice; test: Postemergence Herbicidal Activity, Rice; details: Oryza sativa, post-emergence; for plant injury at 2000 g/ha: 2.0 kg/ha
Summary of the method: as §2

[5] = tested on: Wheat; test: Postemergence Herbicidal Activity, Wheat; details: Triticum aestivum, post-emergence; for plant injury at 2000 g/ha: 2.0 kg/ha
Summary of the method: as §2

[6] = tested on: Morningglory; test: Postemergence Herbicidal Activity, Morningglory; details: Ipomoea, post-emergence; for pest or weed control at 2000 g/ha: 2.0 kg/ha
Summary of the method: as §1

[7] = tested on: Green Foxtail; test: Preemergence Herbicidal Activity, Green Foxtail; details: Setaria viridis, pre-emergence; for pest or weed control at 2000 g/ha: 2.0 kg/ha
Summary of the method: (§3)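 Herbicidal response was graded as percent control. Compound rates were in kg/ha.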

[8] = tested on: Green Foxtail; test: Postemergence Herbicidal Activity, Green Foxtail; details: Setaria viridis, post-emergence; for pest or weed control at 2000 g/ha: 2.0 kg/ha
Summary of the method: as §3

[9] = tested on: Wheat; test: Preemergence Herbicidal Activity, Wheat; details: Triticum aestivum, pre-emergence; for plant injury at 2000 g/ha: 2.0 kg/ha
Summary of the method: as §2

[10] = tested on: Soybean; test: Preemergence Herbicidal Activity, Soybean; details: Glycine max, pre-emergence; for plant injury at 2000 g/ha: 2.0 kg/ha
Summary of the method: as §2

[11] = tested on: Field Corn; test: Postemergence Herbicidal Activity, Field Corn; details: Zea mays, post-emergence; for plant injury at 2000 g/ha: 2.0 kg/ha
Summary of the method: as §2

[12] = tested on: Soybean; test: Postemergence Herbicidal Activity, Soybean; details: Glycine max, post-emergence; for plant injury at 2000 g/ha: 2.0 kg/ha
Summary of the method: as §2

[13] = tested on: Velvetleaf; test: Postemergence Herbicidal Activity, Velvetleaf; details: Abutilon theophrasti, post-emergence; for pest or weed control at 2000 g/ha: 2.0 kg/ha
Summary of the method: as §1

[14] = tested on: Johnsongrass; test: Preemergence Herbicidal Activity, Johnsongrass; details: Sorghum halepense, pre-emergence; for pest or weed control at 2000 g/ha: 2.0 kg/ha
Summary of the method: as §3

[15] = tested on: Johnsongrass; test: Postemergence Herbicidal Activity, Johnsongrass; details: Sorghum halepense, post-emergence; for pest or weed control at 2000 g/ha: 2.0 kg/ha
Summary of the method: as §3

[16] = tested on: Barnyardgrass; test: Postemergence Herbicidal Activity, Barnyardgrass; details: Echinochloa crus-galli, post-emergence; for pest or weed control at 2000 g/ha: 2.0 kg/ha
Summary of the method: as §3

[17] = tested on: Field Corn; test: Preemergence Herbicidal Activity, Field Corn; details: Zea mays, pre-emergence; for plant injury at 2000 g/ha: 2.0 kg/ha
Summary of the method: as §2

[18] = tested on: Barnyardgrass; test: Preemergence Herbicidal Activity, Barnyardgrass; details: Echinochloa crus-galli, pre-emergence; for pest or weed control at 2000 g/ha: 2.0 kg/ha
Summary of the method: as §3

[19] = tested on: Morningglory; test: Preemergence Herbicidal Activity, Morningglory; details: Ipomoea, pre-emergence; for pest or weed control at 2000 g/ha: 2.0 kg/ha
Summary of the method: as §1

[20] = tested on: Cotton; test: Preemergence Herbicidal Activity, Cotton; details: Gossypium hirsutum, pre-emergence; for plant injury at 2000 g/ha: 2.0 kg/ha
Summary of the method: as §1

[21] = tested on: Field Bindweed; test: Preemergence Herbicidal Activity, Field Bindweed; details: pre-emergence; for pest or weed control at 2000 g/ha: 2.0 kg/ha
Summary of the method: as §1

[22] = tested on: Cotton; test: Postemergence Herbicidal Activity, Cotton; details: Gossypium hirsutum, post-emergence; for plant injury at 2000 g/ha: 2.0 kg/ha
Summary of the method: as §1

Question: `Cn1nnn(-c2cc(N(S(C)(=O)=O)S(C)(=O)=O)c(Cl)cc2F)c1=O` [Compound 40] was tested. Which pest or weed control at 4000 g/ha ([1]; 4.0 kg/ha) did it give?
Answer: 40%

Question: What about the plant injury at 4000 g/ha ([2]; 4.0 kg/ha) of the same compound?
Answer: 20%

Question: What about the pest or weed control at 4000 g/ha ([3]; 4.0 kg/ha) of the same compound?
Answer: 100%

Question: What about the plant injury at 4000 g/ha ([4]; 4.0 kg/ha) of the same compound?
Answer: 10%

Question: What about the plant injury at 4000 g/ha ([5]; 4.0 kg/ha) of the same compound?
Answer: 20%

Question: What about the pest or weed control at 4000 g/ha ([6]; 4.0 kg/ha) of the same compound?
Answer: 60%

Question: What about the pest or weed control at 4000 g/ha ([7]; 4.0 kg/ha) of the same compound?
Answer: 40%

Question: What about the pest or weed control at 4000 g/ha ([8]; 4.0 kg/ha) of the same compound?
Answer: 30%

Question: And the plant injury at 4000 g/ha ([9]; 4.0 kg/ha)?
Answer: 30%

Question: And the plant injury at 4000 g/ha ([10]; 4.0 kg/ha)?
Answer: 20%

Question: And the plant injury at 4000 g/ha ([11]; 4.0 kg/ha)?
Answer: 20%

Question: What about the plant injury at 4000 g/ha ([12]; 4.0 kg/ha) of the same compound?
Answer: 20%

Question: And the pest or weed control at 4000 g/ha ([13]; 4.0 kg/ha)?
Answer: 70%

Question: What about the pest or weed control at 4000 g/ha ([14]; 4.0 kg/ha) of the same compound?
Answer: 40%

Question: What about the pest or weed control at 4000 g/ha ([15]; 4.0 kg/ha) of the same compound?
Answer: 30%

Question: And the pest or weed control at 4000 g/ha ([16]; 4.0 kg/ha)?
Answer: 60%

Question: And the plant injury at 4000 g/ha ([17]; 4.0 kg/ha)?
Answer: 30%

Question: And the pest or weed control at 4000 g/ha ([18]; 4.0 kg/ha)?
Answer: 70%

Question: What about the pest or weed control at 4000 g/ha ([19]; 4.0 kg/ha) of the same compound?
Answer: 70%

Question: What about the plant injury at 4000 g/ha ([20]; 4.0 kg/ha) of the same compound?
Answer: 50%

Question: What about the pest or weed control at 4000 g/ha ([21]; 4.0 kg/ha) of the same compound?
Answer: 40%

Question: What about the plant injury at 4000 g/ha ([22]; 4.0 kg/ha) of the same compound?
Answer: 40%

Question: Which pest or weed control at 2000 g/ha [1] does the source give for `CCCn1nnn(-c2cc(N(S(=O)(=O)CC)S(=O)(=O)CC)c(Cl)cc2F)c1=O` [Compound 49, 1-[4-Chloro-2-fluoro-5-[bis-(N--ethylsulfonyl)amino]phenyl]-4,5-dihydro-4-propyl-5H--tetrazol-5-one] here?
Answer: 80%

Question: What about the plant injury at 2000 g/ha [2] of the same compound?
Answer: 70%

Question: What about the pest or weed control at 2000 g/ha [3] of the same compound?
Answer: 100%

Question: And the plant injury at 2000 g/ha [4]?
Answer: 50%

Question: What about the plant injury at 2000 g/ha [5] of the same compound?
Answer: 80%

Question: And the pest or weed control at 2000 g/ha [6]?
Answer: 90%

Question: And the pest or weed control at 2000 g/ha [7]?
Answer: 100%

Question: And the pest or weed control at 2000 g/ha [8]?
Answer: 95%

Question: And the plant injury at 2000 g/ha [9]?
Answer: 95%

Question: What about the plant injury at 2000 g/ha [10] of the same compound?
Answer: 20%

Question: And the plant injury at 2000 g/ha [11]?
Answer: 80%

Question: And the plant injury at 2000 g/ha [12]?
Answer: 50%

Question: What about the pest or weed control at 2000 g/ha [13] of the same compound?
Answer: 100%

Question: What about the pest or weed control at 2000 g/ha [14] of the same compound?
Answer: 80%

Question: What about the pest or weed control at 2000 g/ha [15] of the same compound?
Answer: 90%

Question: What about the pest or weed control at 2000 g/ha [16] of the same compound?
Answer: 95%

Question: What about the plant injury at 2000 g/ha [17] of the same compound?
Answer: 90%

Question: What about the pest or weed control at 2000 g/ha [18] of the same compound?
Answer: 100%

Question: And the pest or weed control at 2000 g/ha [19]?
Answer: 70%

Question: And the plant injury at 2000 g/ha [20]?
Answer: 90%

Question: What about the pest or weed control at 2000 g/ha [21] of the same compound?
Answer: 80%

Question: What about the plant injury at 2000 g/ha [22] of the same compound?
Answer: 100%

Question: How did the pest or weed control at 2000 g/ha [1] turn out when `CCCn1nnn(-c2cc(NS(=O)(=O)CC)c(Cl)cc2F)c1=O` [Compound 51, 1-[4-Chloro-2-fluoro-5-(N--ethylsulfonylamino)phenyl]-4,5-dihydro-4-propyl-5H--tetrazol-5-one] was run?
Answer: 100%

Question: What about the plant injury at 2000 g/ha [2] of the same compound?
Answer: 30%

Question: And the pest or weed control at 2000 g/ha [3]?
Answer: 100%

Question: And the plant injury at 2000 g/ha [4]?
Answer: 60%

Question: And the plant injury at 2000 g/ha [5]?
Answer: 70%

Question: What about the pest or weed control at 2000 g/ha [6] of the same compound?
Answer: 100%

Question: What about the pest or weed control at 2000 g/ha [7] of the same compound?
Answer: 95%

Question: And the pest or weed control at 2000 g/ha [8]?
Answer: 80%

Question: What about the plant injury at 2000 g/ha [9] of the same compound?
Answer: 20%

Question: What about the plant injury at 2000 g/ha [10] of the same compound?
Answer: 20%

Question: And the plant injury at 2000 g/ha [11]?
Answer: 60%

Question: And the plant injury at 2000 g/ha [12]?
Answer: 70%

Question: What about the pest or weed control at 2000 g/ha [13] of the same compound?
Answer: 100%

Question: What about the pest or weed control at 2000 g/ha [14] of the same compound?
Answer: 10%

Question: What about the pest or weed control at 2000 g/ha [15] of the same compound?
Answer: 70%

Question: And the pest or weed control at 2000 g/ha [16]?
Answer: 80%

Question: And the plant injury at 2000 g/ha [17]?
Answer: 70%

Question: And the pest or weed control at 2000 g/ha [18]?
Answer: 70%

Question: What about the pest or weed control at 2000 g/ha [19] of the same compound?
Answer: 100%

Question: And the plant injury at 2000 g/ha [20]?
Answer: 100%

Question: What about the pest or weed control at 2000 g/ha [21] of the same compound?
Answer: 100%

Question: What about the plant injury at 2000 g/ha [22] of the same compound?
Answer: 100%
